{
  "source": "paper PMC4513639",
  "about": "(Molecular pharmacology, 2014)",
  "key": {"[1]": {"tested_on": "A1-receptor-Y^288A", "type": "cell-based, human", "settings": "for receptor upregulation with only one of the inhibitors (immunoblot): sole inhibitor, 2 μM EHNA or 10 μM dipyridamole; for role of blockage of adenosine efflux in receptor upregulation: added to EHNA and 5-iodotubercidin"}, "[2]": {"biological_target": "T1, A1 receptor (Homo sapiens, UniProt P30542)", "T1 sequence (P30542 1-326)": "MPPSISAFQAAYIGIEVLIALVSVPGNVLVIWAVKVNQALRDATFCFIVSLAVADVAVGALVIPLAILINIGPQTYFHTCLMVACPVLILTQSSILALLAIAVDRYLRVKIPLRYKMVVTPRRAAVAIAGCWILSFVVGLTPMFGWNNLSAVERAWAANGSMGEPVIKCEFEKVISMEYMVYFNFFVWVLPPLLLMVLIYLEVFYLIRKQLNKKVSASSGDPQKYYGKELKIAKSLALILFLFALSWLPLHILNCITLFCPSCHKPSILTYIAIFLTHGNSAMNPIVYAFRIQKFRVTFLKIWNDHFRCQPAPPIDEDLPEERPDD", "assay": "Binding of the inhibitors to the A1 receptor", "settings": "nanomolar to micromolar range"}, "[3]": {"biological_target": "human ENT1", "settings": "read-out: affinity; ref Ward et al., 2000; cited from earlier work"}, "[4]": {"biological_target": "human ENT2", "settings": "read-out: affinity; ref Ward et al., 2000; cited from earlier work"}, "[5]": {"biological_target": "T2, A1-receptor-Y^288A (Homo sapiens, UniProt P30542, Y288A)", "T2 sequence (P30542 1-326 Y288A)": "T1 sequence (P30542 1-326) with Y288A", "type": "binding", "settings": "membranes of untreated cells"}, "[6]": {"tested_on": "A1-receptor-Y^288A", "assay": "Confocal microscopy of YFP-tagged A1-receptor-Y288A distribution", "type": "cell-based, human", "settings": "1 μM DPCPX or combination of inhibitors"}, "[7]": {"tested_on": "A1-receptor-Y^288A", "type": "cell-based, human", "settings": "24 hours; 1 μM DPCPX or inhibitor combination"}, "[8]": {"tested_on": "A1-receptor-Y^288A", "type": "cell-based, human", "settings": "SF-TAP-tagged receptor, 24 hours treatment, 15 nM [3H]DPCPX"}, "[9]": {"biological_target": "T3, wild-type A1 receptor (Homo sapiens, UniProt P30542)", "T3 sequence (P30542 1-326)": "T1 sequence (P30542 1-326)", "type": "binding", "settings": "SF-TAP-tagged receptor"}, "[10]": {"biological_target": "adenosine deaminase", "settings": "ref Ingolia et al., 1985; cited from earlier work"}, "[11]": {"settings": "24 hours, 0.5 μM iodotubercidin"}},
  "note": "Numbering of substitutions follows the chain as printed. Where two headings read alike, the source gives them in different places.",
  "data": [
    {"smiles": "Nc1ncnc2c1c(I)cn2[C@@H]1O[C@H](CO)[C@@H](O)[C@H]1O", "note": "[5-iodotubercidin]", "values": [
      {"measurement": "receptor upregulation with only one of the inhibitors (immunoblot)", "setting": "[1]; [11]", "result": "not present"},
      {"measurement": "binding to the A1 receptor", "setting": "[2]", "result": "neither EHNA nor 5-iodotubercidin nor dipyridamole per se, nor their combination, used in the experiments bound to the A1 receptor"}
    ]},
    {"smiles": "OCCN(CCO)c1nc(N2CCCCC2)c2nc(N(CCO)CCO)nc(N3CCCCC3)c2n1", "note": "[dipyridamole]", "values": [
      {"measurement": "role of blockage of adenosine efflux in receptor upregulation", "setting": "[1]; 24 hours", "result": "indispensable for receptor upregulation"},
      {"measurement": "receptor upregulation with only one of the inhibitors (immunoblot)", "setting": "[1]; [11]", "result": "not present"},
      {"measurement": "Ki", "setting": "[3]", "result": "~0.005", "unit": "µM"},
      {"measurement": "Ki", "setting": "[4]", "result": "~0.35", "unit": "µM"},
      {"measurement": "binding to the A1 receptor", "setting": "[2]", "result": "neither EHNA nor 5-iodotubercidin nor dipyridamole per se, nor their combination, used in the experiments bound to the A1 receptor"}
    ]},
    {"smiles": "O=[N+]([O-])c1ccc(CSc2ncnc3c2ncn3[C@@H]2O[C@H](CO)[C@@H](O)[C@H]2O)cc1", "note": "[NBMPR, S-(4-nitrobenzyl)-6-thioinosine]", "values": [
      {"measurement": "role of blockage of adenosine efflux in receptor upregulation", "setting": "[1]; 24 hours", "result": "indispensable for receptor upregulation"}
    ]},
    {"smiles": "CCCn1c(=O)c2[nH]c(C3CCCC3)nc2n(CCC)c1=O", "note": "[DPCPX, 8-cyclopentyl-1,3-dipropylxanthine]", "values": [
      {"measurement": "fate of receptor after cycloheximide block (mature glycosylated forms)", "setting": "[1]; 4 hours preincubation, then cycloheximide 50 μg/ml for 2 or 4 hours", "result": "concomitant increase in the mature glycosylated forms of the receptor"},
      {"measurement": "level of receptor protein (immunoblot)", "setting": "[1]; HEK293 stably expressing A1-receptor-Y288A-YFP, 24 hours, 1 μM DPCPX, 2 μM EHNA, 0.5 μM iodotubercidin, 10 μM dipyridamole", "result": "elevated levels of the receptor protein"},
      {"measurement": "time of maximum chaperoning effect", "setting": "[1]; incubation 1, 2, 4, 8 or 24 hours", "result": 24, "unit": "h"},
      {"measurement": "Bmax", "setting": "[5]", "result": "486.3 ± 80.0", "unit": "fmol/mg"},
      {"measurement": "distribution of receptor fluorescence (confocal)", "setting": "[6]", "result": "the fluorescence was visualized on the cell surface"},
      {"measurement": "YFP fluorescence (flow cytometry)", "setting": "[7]", "result": "substantial accumulation of YFP fluorescence"},
      {"measurement": "binding of [3H]DPCPX by the receptors accumulated after treatment", "setting": "[8]", "result": "did bind the radioligand"},
      {"measurement": "Bmax", "setting": "[9]; hypoxic cells (5% O2, 24 hours)", "result": "15.0 ± 0.8", "unit": "pmol/mg"},
      {"measurement": "Bmax", "setting": "[9]; normoxic cells", "result": "12.2 ± 0.3", "unit": "pmol/mg"}
    ]},
    {"smiles": "CCCCCC[C@@H]([C@@H](C)O)n1cnc2c(N)ncnc21", "note": "(racemic) [EHNA, Erythro-9-(2-hydroxy-3-nonyl)adenine]", "values": [
      {"measurement": "receptor upregulation with only one of the inhibitors (immunoblot)", "setting": "[1]; [11]", "result": "not present"},
      {"measurement": "Ki", "setting": "[10]", "result": 0.033, "unit": "µM"},
      {"measurement": "binding to the A1 receptor", "setting": "[2]", "result": "neither EHNA nor 5-iodotubercidin nor dipyridamole per se, nor their combination, used in the experiments bound to the A1 receptor"}
    ]},
    {"smiles": "O=C1N[C@@H]2[C@@H](O)[C@@H](O)[C@H](O)[C@@H](CO)N2C1=O", "note": "[kifunensine]", "values": [
      {"measurement": "binding of [3H]DPCPX by the receptors accumulated after treatment", "setting": "[8]", "result": "failed to bind the antagonist radioligand [^3H]DPCPX"}
    ]}
  ]
}
